In patent publication US4279822A, “N-(1-Substituted-3-pyrrolidinyl)benzamides” (A. H. Robins Company, Inc., priority 1976, dated 1981):
Read-outs that look alike come from different tables or passages of the source.

Test system: apomorphine-induced emesis in dogs
Experiment: Reduction of apomorphine-induced emesis in dogs (anti-emetic effect)
Format: in vivo
Conditions: for % Reduction in Emesis: 5 mg/kg s.c., percent reduction in emesis over that of controls; for ED50: Canis lupus familiaris, sc, 40 min, read-out: ED50, Anti-Emetic Effect of Subcutaneous Administration
Procedure: The anti-emetic properties of the compounds of Formula I were established using a modification of the methods of Chen and Ensor, J. Pharmac. Exp. Ther. 98: 245-250 (1950) and of Leonard et al., J. Pharmac. Exp. Ther. 154: 339-345 (1966). Drug activity was assessed by its ability to reduce the frequency of apomorphine-induced emesis in dogs. The dogs were prescreened for fairly constant emetic responses to the subcutaneous administration of 0.1 mg/kg. of apomorphine hydrochloride, and those which vomited five or more times in the 40-minute period after apomorphine administration were selected for drug studies.
Groups of three dogs were used in preliminary tests and for the determinations of time of peak drug effect. Dose response curves were usually obtained using four drug-treated groups; each group contained at least three dogs. The dogs were fed approximately 17 hours prior to a test. Drugs were administered and at suitable intervals the dogs received 0.1 mg/kg of apomorphine hydrochloride subcutaneously. Frequency of emesis was determined during the next 40 minutes and emesis was counted as the actual expulsion of stomach contents.
In oral studies, drugs were administered in gelatin capsules (controls received an empty capsule). In the subcutaneous studies, drugs were administered in distilled water and/or polyethylene glycol-300.
Dogs were re-used at intervals of not less than one week. The ED50 is the dose which reduces the frequency of emesis of drug treated dogs to a value 50% below that of controls. Mean frequency of emesis for each drug treated group was compared with a mean control value derived by pooling the prior control emetic frequencies for all dogs used on that test day. The difference is expressed as a percentage decrease relative to controls. The percent decrease in mean frequency of emesis for each drug-treated group (ordinate) was plotted against log dose (abscissa) on semi-log graph sheets. The ED50 was calculated by the method of Goldstein (Biostatistics, An Introductory Test; Pages 156-161; The MacMillan Co., New York, 1964).

[1] = dogs, apomorphine hydrochloride 0.1 mg/kg s.c.

CS(=O)(=O)Nc1ccc(C(=O)NC2CCN(C3CCCCC3)C2)cc1 (stereo not drawn) [Example 34]
% Reduction in Emesis [1]: -86%

CC(=O)Nc1ccccc1C(=O)NC1CCN(C2CCCCC2)C1 (stereo not drawn) [Example 35]
% Reduction in Emesis [1]: -95%

CC(=O)Nc1ccc(C(=O)NC2CCN(Cc3ccccc3)C2)cc1 (stereo not drawn) [Example 36]
% Reduction in Emesis [1]: -59%

O=C(NC1CCN(C2CCCCC2)C1)c1cc([N+](=O)[O-])cc([N+](=O)[O-])c1 (stereo not drawn) [Example 6, N-(1-Cyclohexyl-3-pyrrolidinyl)-3,5-dinitrobenzamide]
ED50: 0.15 mg/kg

CS(=O)(=O)N(c1ccc(C(=O)NC2CCN(C3CCCCC3)C2)cc1)S(C)(=O)=O (stereo not drawn) [Example 8, N-(1-Cyclohexyl-3-pyrrolidinyl)-4-[bis(methylsulfonyl)amino]benzamide]
% Reduction in Emesis [1]: -44%

CNc1ccc(C(=O)N(C)C2CCN(C3CCCCC3)C2)cc1.Cl.Cl (stereo not drawn) [Example 5, 4-Methylamino-N-(1-cyclohexyl-3-pyrrolidinyl)-N-methylbenzamide Dihydrochloride]
ED50 (dogs, s.c., doses expressed as free base, apomorphine hydrochloride 0.1 mg/kg s.c., 50% reduction of emesis frequency vs controls): 0.05 mg/kg

O=C(NC1CCN(C2CCCCC2)C1)c1ccc(Cl)cc1Cl (stereo not drawn) [Example 14]
ED50: 2.4 mg/kg

CC(=O)Nc1ccc(C(=O)NC2CCN(C3CCCCC3)C2)cc1 (stereo not drawn) [Example 4, N-(1-Cyclohexyl-3-pyrrolidinyl)-4-acetamidobenzamide]
ED50: 2.4 mg/kg

CC(=O)Nc1cccc(C(=O)NC2CCN(C3CCCCC3)C2)c1 (stereo not drawn) [Example 33]
% Reduction in Emesis [1]: -87%
